MIC data for ten molecules are collected here from DBAASP.

In brackets after ≈: the same amount, converted by molar mass.

Holding throughout (test): ≥ marks a high value that may be exact or a test limit, other limits are often not marked, values filed in µg/mL are converted to µM
Assay [1] deals with Escherichia coli.
Assay [2] deals with Staphylococcus aureus.
In assay [3] the test system is Enterococcus faecalis.
For assay [4], the system named is Pasteurella multocida.
Assay [5] has as its system Listeria innocua.
For assay [6], the system named is Streptococcus uberis.
Assay [7] deals with Bacillus cereus.
The subject of assay [8] is Micrococcus luteus.
The subject of assay [9] is Staphylococcus epidermidis.
Assay [10] concerns Leuconostoc lactis.
Assay [11] deals with Staphylococcus aureus ATCC 33591.
Assay [12] has as its system Staphylococcus aureus ATCC 25923.
The test system of assay [13] is Staphylococcus epidermidis ATCC 35984.
Assay [14] has as its system Pseudomonas aeruginosa ATCC 27853.
Assay [15] deals with Staphylococcus aureus ATCC 700699.
In assay [16] the test system is Escherichia coli ATCC 25922.
Assay [17] deals with Staphylococcus aureus ATCC 29213.
For assay [18], the system named is Klebsiella pneumoniae ATCC 700603.
The subject of assay [19] is Enterococcus faecalis ATCC 29212.
Assay [20] concerns Staphylococcus aureus ATCC 6538.
Assay [21] has as its system Pseudomonas aeruginosa ATCC 15442.
In assay [22] the test system is Micrococcus luteus A270.
In assay [23] the test system is Escherichia coli K88.
Assay [24] deals with Escherichia coli CVCC 1515.
Assay [25] has as its system Staphylococcus epidermidis ATCC 12228.
The test system of assay [26] is Salmonella enterica subsp. enterica serovar Typhimurium ATCC 14028.
The test system of assay [27] is Escherichia coli UB1005.
Assay [28] has as its system Staphylococcus aureus USA 300.
Assay [29] has as its system Bacillus subtilis ATCC 23857.
The subject of assay [30] is Pseudomonas aeruginosa H103.
Assay [31] relates to Candida albicans.
The test system of assay [32] is Salmonella enterica serovar Typhimurium.

Turning to `CC[C@H](C)[C@H](NC(=O)[C@H](C)NC(=O)[C@H](CCC(=O)O)NC(=O)[C@H](Cc1cnc[nH]1)NC(=O)[C@@H](N)Cc1ccccc1)C(=O)N[C@@H](C)C(=O)N1CCC[C@H]1C(=O)N[C@H](C(=O)N[C@H](C(=O)N[C@@H](Cc1cnc[nH]1)C(=O)N[C@@H](C)C(=O)N[C@@H](C)C(=O)N[C@H](C(=O)N[C@@H](CCCCN)C(=O)N[C@@H](C)C(=O)N[C@@H](CC(C)C)C(=O)N[C@H](C(=O)NCC(=O)N[C@@H](Cc1ccccc1)C(=O)N[C@@H](CC(C)C)C(=O)NCC(N)=O)C(C)C)C(C)C)C(C)C)C(C)C` [FHEAIAPVVHAAVKALVGFLG], the MIC – broadly, the least concentration at which growth counts as inhibited – in assay [1] is greater than 46.6 µM; in assay [2], greater than 46.6 µM; in [3], no less than 46.6 µM; in assay [4] it was no less than 46.6 µM; in assay [5] it was no less than 46.6 µM; in assay [6], no less than 46.6 µM. In addition, the MIC in assay [7] is no less than 46.6 µM; in assay [8], no less than 46.6 µM; in [9], no less than 46.6 µM; in assay [10], 23.3 µM (≈ 50 µg/mL).

Regarding `CC(C)C[C@H](NC(=O)[C@@H](N)Cc1ccccc1)C(=O)N[C@@H](CCCCN)C(=O)N[C@@H](CCCCN)C(=O)N[C@@H](C)C(=O)N[C@@H](CCCCN)C(=O)N[C@@H](CCCCN)C(=O)N[C@@H](Cc1ccccc1)C(=O)NCC(=O)N[C@@H](CCCCN)C(=O)N[C@@H](C)C(=O)N[C@@H](Cc1ccccc1)C(N)=O` [FLKKAKKFGKAF], the MIC was no less than 362 µM in assay [11], greater than 362 µM in assay [12], no less than 181 µM in [13] and 45.3 µM (≈ 64 µg/mL) in assay [14].

Consider `CC[C@H](C)[C@H](NC(=O)[C@H](C)NC(=O)[C@@H](NC(=O)[C@@H](NC(=O)CN)C(C)C)C(C)C)C(=O)N[C@@H](CC(C)C)C(=O)N[C@@H](CCCCN)C(=O)NCC(=O)N[C@@H](C)C(=O)N[C@@H](C)C(=O)N[C@@H](CCCCN)C(=O)N[C@@H](CC(=O)O)C(=O)N[C@H](C(=O)N[C@@H](C)C(=O)NCC(=O)N[C@@H](Cc1cnc[nH]1)C(=O)N[C@@H](CC(C)C)C(=O)N[C@@H](C)C(=O)N[C@@H](CO)C(=O)N[C@@H](CCCCN)C(=O)N[C@H](C(=O)N[C@@H](CCSC)C(=O)N[C@@H](CC(N)=O)C(=O)N[C@@H](CCCCN)C(=O)N[C@@H](CC(C)C)C(N)=O)C(C)C)[C@@H](C)CC` [GVVAILKGAAKDIAGHLASKVMNKL], for which the MIC in assay [15] was no less than 100 µM; in assay [16], 50 µM (≈ 125 µg/mL); in assay [11] it was no less than 100 µM; in assay [17] it was greater than 0.1 mM; in assay [18], 50 µM (≈ 125 µg/mL); in assay [14], greater than 100 µM.

Regarding `CC(C)C[C@H](NC(=O)[C@H](C)NC(=O)[C@H](Cc1cnc[nH]1)NC(=O)[C@H](Cc1cnc[nH]1)NC(=O)CNC(=O)[C@H](CC(C)C)NC(=O)[C@@H](N)Cc1cnc[nH]1)C(=O)N[C@@H](CC(=O)O)C(=O)N[C@@H](Cc1cnc[nH]1)C(=O)N[C@@H](CC(C)C)C(=O)N[C@@H](CC(C)C)C(=O)N[C@@H](CCCCN)C(=O)O` [HLGHHALDHLLK], the MIC in [19] was greater than 8990 µM; in assay [20], 8.99 mM (≈ 12500 µg/mL); in [21] it was no less than 8.99 mM; in [17] it was greater than 8.99 mM; in assay [12], 8990 µM (≈ 12500 µg/mL); in assay [13] it was no less than 8990 µM.

For `CC(C)C[C@H](NC(=O)[C@H](CO)NC(=O)[C@H](Cc1cnc[nH]1)NC(=O)[C@H](CO)NC(=O)[C@H](CC(C)C)NC(=O)[C@H](CC(C)C)NC(=O)[C@@H](N)CCCCN)C(=O)O` [KLLSHSL], the values for the MIC in assay [1], in assay [22] and in assay [5] were 78.4 µM (≈ 62.5 µg/mL), no less than 39.2 µM and no less than 39.2 µM, respectively.

`CC(C)C[C@H](NC(=O)[C@H](Cc1c[nH]c2ccccc12)NC(=O)[C@H](CCCCN)NC(=O)[C@H](C)NC(=O)[C@H](C)NC(=O)[C@H](C)NC(=O)[C@H](CCCCN)NC(=O)[C@H](C)NC(=O)[C@H](C)NC(=O)[C@H](C)NC(=O)[C@H](CCCCN)NC(=O)[C@H](Cc1c[nH]c2ccccc12)NC(=O)[C@@H](N)CC(C)C)C(N)=O` [LWKAAAKAAAKWL]: the MIC in assay [23] was 4 µM (≈ 5.71 µg/mL); in assay [24], 8 µM (≈ 11.4 µg/mL); in [25], 16 µM (≈ 22.8 µg/mL); in assay [26] it was 64 µM (≈ 91.3 µg/mL); in assay [27], 8 µM (≈ 11.4 µg/mL); in assay [14], 16 µM (≈ 22.8 µg/mL).

Turning to `CC[C@H](C)[C@H](NC(=O)CNC(=O)[C@@H](N)CCSC)C(=O)N[C@H](C(=O)N[C@@H](C)C(=O)NCC(=O)N[C@H](C(=O)N[C@H](C(=O)N[C@@H](CCCCN)C(=O)N[C@H](C(=O)N[C@H](C(=O)N[C@@H](CCCCN)C(=O)N[C@@H](CO)C(=O)N[C@@H](CC(C)C)C(=O)N[C@H](C(=O)N[C@@H](CCC(=O)O)C(=O)N[C@@H](CCC(N)=O)C(=O)N[C@@H](Cc1ccccc1)C(=O)N[C@H](C(=O)NCC(=O)N[C@@H](CCCCN)C(=O)O)[C@@H](C)O)[C@@H](C)CC)[C@@H](C)CC)C(C)C)[C@@H](C)CC)[C@@H](C)CC)[C@@H](C)CC` [MGIIAGIIKVIKSLIEQFTGK], the MIC was greater than 128 µM in assay [16], no less than 64 µM in assay [28], no less than 128 µM in assay [29] and no less than 64 µM in assay [13].

`CC[C@H](C)[C@H](NC(=O)[C@@H](N)CCCN=C(N)N)C(=O)N[C@@H](CCCN=C(N)N)C(=O)N[C@@H](CCCN=C(N)N)C(=O)N[C@@H](Cc1c[nH]c2ccccc12)C(=O)N[C@@H](CCCCN)C(=O)N[C@@H](Cc1ccccc1)C(=O)N[C@@H](CCCN=C(N)N)C(=O)N[C@@H](Cc1c[nH]c2ccccc12)C(=O)O` [RIRRWKFRW]: the MIC in assay [19] was 5.3 µM (≈ 7.44 µg/mL); in assay [30], no less than 42.6 µM; in assay [31] it was 21.3 µM (≈ 29.9 µg/mL); in assay [12], 1.3 µM (≈ 1.82 µg/mL); in assay [9], 1.3 µM (≈ 1.82 µg/mL); in [27], 5.3 µM (≈ 7.44 µg/mL). Moreover, the MIC in assay [32] worked out at 5.3 µM (≈ 7.44 µg/mL).

Take `CC(C)C[C@H](NC(=O)[C@@H](N)CCCN=C(N)N)C(=O)N[C@@H](Cc1c[nH]c2ccccc12)C(=O)N[C@@H](Cc1c[nH]c2ccccc12)C(=O)N[C@@H](Cc1c[nH]c2ccccc12)C(=O)N[C@@H](Cc1c[nH]c2ccccc12)C(=O)N[C@@H](CCCN=C(N)N)C(=O)N[C@@H](CCCN=C(N)N)C(=O)N[C@@H](CCCCN)C(=O)O` [RLWWWWRRK]: the minimal inhibitory concentration (MIC) in [19] stood at 4.1 µM (≈ 6.04 µg/mL); in assay [30], 16.6 µM (≈ 24.4 µg/mL); in assay [31], 4.1 µM (≈ 6.04 µg/mL); in [12], 2.1 µM (≈ 3.09 µg/mL); in [9], 0.5 µM (≈ 0.736 µg/mL); in assay [27], 4.1 µM (≈ 6.04 µg/mL). The MIC in assay [32] was 8.3 µM (≈ 12.2 µg/mL).

Consider `CC(C)C[C@H](NC(=O)[C@H](CCCCN)NC(=O)[C@H](C)NC(=O)[C@H](C)NC(=O)[C@H](C)NC(=O)[C@H](CCCCN)NC(=O)[C@H](C)NC(=O)[C@H](C)NC(=O)[C@H](C)NC(=O)[C@H](CCCCN)NC(=O)[C@H](CC(C)C)NC(=O)[C@@H](N)Cc1c[nH]c2ccccc12)C(=O)N[C@@H](Cc1c[nH]c2ccccc12)C(N)=O` [WLKAAAKAAAKLW], for which the MIC was found to be 2 µM (≈ 2.85 µg/mL) in assay [23]; 4 µM (≈ 5.71 µg/mL) in assay [24]; 8 µM (≈ 11.4 µg/mL) in assay [25]; 8 µM (≈ 11.4 µg/mL) in [26]; 4 µM (≈ 5.71 µg/mL) in assay [27]; 16 µM (≈ 22.8 µg/mL) in [14].
